The source made the active and inactive calls. How the calls were made is not given here.
Each molecule was assayed against Protein LANA1 (Human herpesvirus 8 type P (isolate GK18)) (UniProt Q9QR71) (assay: disruption of KSHV LANA peptide–nucleosome binding – biochemical, fluorescence polarization, cell-free, retest, dose response (AID 435023)).
Chain of Protein LANA1 (Human herpesvirus 8 type P (isolate GK18)) (Q9QR71 whole entry, looked up): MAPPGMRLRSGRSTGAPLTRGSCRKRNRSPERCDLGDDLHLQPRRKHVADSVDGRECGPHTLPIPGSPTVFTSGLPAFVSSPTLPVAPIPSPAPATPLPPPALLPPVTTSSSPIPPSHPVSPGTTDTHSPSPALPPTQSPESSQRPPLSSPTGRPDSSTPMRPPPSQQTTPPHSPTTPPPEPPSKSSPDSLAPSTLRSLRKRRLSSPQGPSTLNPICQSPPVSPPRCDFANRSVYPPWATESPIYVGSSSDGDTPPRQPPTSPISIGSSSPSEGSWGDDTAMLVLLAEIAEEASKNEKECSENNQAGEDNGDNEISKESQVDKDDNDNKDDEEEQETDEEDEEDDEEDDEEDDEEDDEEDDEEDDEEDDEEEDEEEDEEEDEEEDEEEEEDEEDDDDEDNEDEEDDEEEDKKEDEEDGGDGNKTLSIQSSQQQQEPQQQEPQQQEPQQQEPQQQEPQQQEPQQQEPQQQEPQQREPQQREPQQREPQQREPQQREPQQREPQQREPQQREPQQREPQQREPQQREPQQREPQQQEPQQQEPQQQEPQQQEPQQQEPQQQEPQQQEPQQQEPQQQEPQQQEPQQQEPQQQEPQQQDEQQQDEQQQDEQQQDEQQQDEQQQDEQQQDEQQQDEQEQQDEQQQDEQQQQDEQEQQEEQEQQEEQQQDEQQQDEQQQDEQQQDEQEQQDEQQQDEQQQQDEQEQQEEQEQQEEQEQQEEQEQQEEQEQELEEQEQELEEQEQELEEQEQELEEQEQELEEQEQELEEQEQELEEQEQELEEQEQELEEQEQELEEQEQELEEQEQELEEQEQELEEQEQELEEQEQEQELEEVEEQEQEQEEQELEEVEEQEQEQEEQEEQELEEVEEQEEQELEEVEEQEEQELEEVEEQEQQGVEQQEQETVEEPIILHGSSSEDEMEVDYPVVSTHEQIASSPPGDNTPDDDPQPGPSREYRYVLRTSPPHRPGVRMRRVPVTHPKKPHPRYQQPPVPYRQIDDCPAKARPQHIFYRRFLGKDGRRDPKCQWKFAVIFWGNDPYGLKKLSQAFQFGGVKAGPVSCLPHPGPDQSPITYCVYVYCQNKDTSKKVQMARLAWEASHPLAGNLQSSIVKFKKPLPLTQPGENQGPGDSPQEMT

Compound | EC50
CC1(C)C(C#N)=C(N)OC2=C1C(=O)CCC2 | > 7.5 µM (inactive)
Cc1cc(C)nc(SC2CC(=O)N(c3ccc(C)c(C)c3)C2=O)n1 (configuration not stated) | > 7.5 µM (inactive)
COc1cc(/C=N/O)c(Br)cc1OCC(=O)Nc1ccccc1C | > 7.5 µM (inactive)
CCOc1ccc(N2C(=O)C3ON(c4ccccc4)C(c4ccco4)C3C2=O)cc1 (configuration not stated) | > 7.5 µM (inactive)
CCN(CC)CCN1C(=O)C(O)=C(C(=O)c2ccc(C)o2)C1c1ccccn1 (configuration not stated) | > 7.5 µM (inactive)
COc1ccccc1N1C(=O)[C@@H]2C(C(=O)CN3C(=O)c4ccccc4C3=O)=NN[C@@H]2C1=O | > 7.5 µM (inactive)
Cn1[nH]c(-c2ccccc2)c(/C=N/O)c1=O | > 7.5 µM (inactive)
O=c1c(/C=C(\O)c2ccc(F)cc2)nc2ccccc2n1-c1ccccc1 | > 7.5 µM (inactive)
CC[C@H]1c2[nH]c3ccccc3c2C[C@H]2C(=O)N(c3ccc(F)cc3)C(=O)N21 | > 7.5 µM (inactive)
O=C(C1=C(O)C(=O)N(CCCN2CCOCC2)C1c1ccccn1)c1cc2ccccc2o1 (configuration not stated) | > 7.5 µM (inactive)
COc1ccc(NC2=C(Cl)C(=O)N(c3ccccc3)C2=O)c(OC)c1 | > 7.5 µM (inactive)
CC1C2CC(C(CN(C)C)/C2=N/O)C1(C)C (configuration not stated) | > 7.5 µM (inactive)
Cc1cccc(CC2CC(=O)N(c3ccc(C)cc3Br)C2=O)c1 (configuration not stated) | > 7.5 µM (inactive)
COC(=O)c1ccccc1NC1CC(=O)N(c2c(C)cccc2C)C1=O (configuration not stated) | > 7.5 µM (inactive)
O=C(O)CC1S/C(=N/N=C/c2ccccn2)NC1=O (configuration not stated) | > 7.5 µM (inactive)
CC1=NCCc2c1[nH]c1cc(O)ccc21 | 2.37 µM
CCC/C=N/O | > 7.5 µM (inactive)
COc1ccc(N/C=C/C(=O)c2cc(OC)c(OC)c(OC)c2)cc1 | > 7.5 µM (inactive)
Cc1ccc(/C(O)=C/c2nc3cc(C)ccc3oc2=O)cc1 | 5.84 µM
Oc1c(N=NC(=S)Nc2ccccc2F)c2ccccc2n1Cc1ccc(Cl)cc1 | > 7.5 µM (inactive)
COc1ccc(N/C=C/C(=O)c2ccc(Cl)cc2)cc1 | > 7.5 µM (inactive)
CCNc1nc(NCC)nc(N/N=C/c2ccc(N(C)C)cc2)n1 | > 7.5 µM (inactive)
CC1(C)C(c2cccs2)=[N+]([O-])C2(CCCCC/C2=N\O)N1O (configuration not stated) | > 7.5 µM (inactive)
CC(=O)C1=C(O)C(=O)N(c2ccc(C(=O)O)cc2)C1c1ccc([N+](=O)[O-])cc1 (configuration not stated) | > 7.5 µM (inactive)

Compound | EC50
COc1ccc(CCn2c(O)c(C=Nc3ccc(F)cc3)c(=O)[nH]c2=O)cc1OC | > 7.5 µM (inactive)
COc1cccc(CNC(=O)c2ccc(NC(=O)CC3SC(N4CCCC4)=NC3=O)cc2)c1 (configuration not stated) | > 7.5 µM (inactive)
CC(=O)c1cccc(OC(=O)C2=CC=CN3CCS(=O)(=O)N=C23)c1 | > 7.5 µM (inactive)
O=C1CC(c2ccc(F)cc2)CC(O)=C1C=NCCN1CCNCC1 (configuration not stated) | > 7.5 µM (inactive)
COc1ccccc1N1CCN(C2CC(=O)N(c3cccc(Cl)c3)C2=O)CC1 (configuration not stated) | > 7.5 µM (inactive)
C/C(=N\Nc1nncc2ccccc12)c1ccc(O)cc1 | > 7.5 µM (inactive)
Cc1ccc(NC2=C([N+](=O)[O-])CS(=O)(=O)C2)cc1 | > 7.5 µM (inactive)
O=[N+]([O-])c1cccc(/C=N/Nc2nccnc2Cl)c1 | > 7.5 µM (inactive)
O=C(CC1SC(N2CCCCC2)=NC1=O)Nc1cccc(C(=O)O)c1 (configuration not stated) | > 7.5 µM (inactive)
CC(C)n1c(O)c(/C=C2\C=NN=C2c2ccccc2)sc1=S | > 7.5 µM (inactive)
C/C(=N\Nc1ccc(Cl)c(C(=O)O)c1)c1ccc(N2CCOCC2)cc1 | > 7.5 µM (inactive)
COc1ccc(C2=CC(c3cc(OC)c(OC)c(OC)c3)NC(=S)N2)cc1 (configuration not stated) | > 7.5 µM (inactive)
CCCCc1ccc(N=N/C(C(=O)Nc2ccc(NC(C)=O)cc2OC)=C(/C)O)cc1 | > 7.5 µM (inactive)
Cc1nc2c(C)cccn2c1/C(O)=C1\C(=O)C(=O)N(CCN(C)C)C1c1ccccc1 (configuration not stated) | > 7.5 µM (inactive)
COc1ccccc1C1C(C(=O)c2sc(C)nc2C)=C(O)C(=O)N1CCN1CCOCC1 (configuration not stated) | > 7.5 µM (inactive)
N#CC(C#N)=C/C(C#N)=C(/N)N1CCN(c2ccc(Cl)cc2)CC1 | > 7.5 µM (inactive)
COc1ccc(C2C(C(=O)c3ccco3)=C(O)C(=O)N2CC2CCCO2)cc1OC (configuration not stated) | > 7.5 µM (inactive)
Cc1ccc(N2C(=O)[C@@H]3C(C(=O)CN4C(=O)c5ccccc5C4=O)=NN[C@@H]3C2=O)c(C)c1 | > 7.5 µM (inactive)
C/C(=N\N=C1/NC(=O)C(C)S1)c1ccc([N+](=O)[O-])cc1 (configuration not stated) | > 7.5 µM (inactive)
Brc1ccc(C2=CC(c3ccco3)n3ncnc3N2)cc1 (configuration not stated) | > 7.5 µM (inactive)
CCN(CC)CCCN1C(=O)C(=O)/C(=C(/O)c2ccccc2)C1c1cc(OC)ccc1OC (configuration not stated) | > 7.5 µM (inactive)
Oc1ccc2nnc3c(Br)cnn3c2c1 | > 7.5 µM (inactive)
COc1ccc(C2C(C(=O)c3cccs3)=C(O)C(=O)N2c2nncs2)cc1 (configuration not stated) | > 7.5 µM (inactive)
CCOC(=O)C1=C(CSc2nc(-c3ccccc3)ccc2C#N)OC(N)=C(C#N)C1c1ccccc1 (configuration not stated) | > 7.5 µM (inactive)

Compound | EC50
CCOc1cccc(C2C(C(=O)c3ccc(C)o3)=C(O)C(=O)N2c2nccs2)c1 (configuration not stated) | > 7.5 µM (inactive)
NC(=O)Cn1c(O)c(N=NC(=O)CNC(=O)/C=C/c2ccccc2)c2ccccc21 | > 7.5 µM (inactive)
CNC(=O)c1ccc(NC(=O)CC2SC(N3CCCC3)=NC2=O)cc1 (configuration not stated) | > 7.5 µM (inactive)
CN(CCOc1ccc(CC2SC(=O)NC2=O)cc1)c1ccccn1 (configuration not stated) | > 7.5 µM (inactive)
COc1cc([N+](=O)[O-])ccc1N1C(=O)CC(Sc2nccc(C)n2)C1=O (configuration not stated) | > 7.5 µM (inactive)
Cc1ccc2oc(=O)c(/C=C(\O)c3ccco3)nc2c1 | > 7.5 µM (inactive)
CN1CC=C2C(C#N)=C(N)C(C#N)(C#N)[C@H](c3ccoc3)[C@H]2C1 | > 7.5 µM (inactive)
CCOc1cc(C2C3=C(CCCC3=O)Nc3nc(C(=O)OC)nn32)ccc1OC (configuration not stated) | > 7.5 µM (inactive)
COC(=O)CC1=C(C(=O)OC)C(c2cc(OC)c(OC)cc2OC)C(C#N)=C(N)O1 (configuration not stated) | > 7.5 µM (inactive)
N#Cc1ccccc1/C=N/Nc1nc(-c2ccccc2)c2cc(Cl)ccc2n1 | > 7.5 µM (inactive)
C=CCOc1ccc(/C(O)=C2/C(=O)C(=O)N(CCCN3CCOCC3)C2c2ccc(OC)cc2)cc1 (configuration not stated) | > 7.5 µM (inactive)
COc1ccc(CC2C(=O)N(c3ccccc3)C(=O)N(c3ccccc3)C2=O)c(OC)c1 | > 7.5 µM (inactive)
O=C1CCCC(O)=C1C=Nc1ccc(O)cc1 | > 7.5 µM (inactive)
CC1(C)CC(=O)C(C(C#Cc2ccccc2)C2=C(O)CC(C)(C)CC2=O)=C(O)C1 | > 7.5 µM (inactive)
COc1ccc(C(=O)/C=C/Nc2ccc(S(=O)(=O)Nc3cc(OC)nc(OC)n3)cc2)c(OC)c1 | > 7.5 µM (inactive)
O=C(O)C(C/C(=N/O)c1ccc(Br)cc1)P(=O)(c1ccccc1)c1ccccc1 (configuration not stated) | > 7.5 µM (inactive)
C/C(=N/NC(=O)c1ccncc1)c1cc2ccc(O)cc2oc1=O | > 7.5 µM (inactive)
O=C(/C=C/Nc1ccccc1)c1ccc(Cl)cc1Cl | > 7.5 µM (inactive)
CC1Cc2cc(/C(O)=C3\C(=O)C(=O)N(Cc4cccnc4)C3c3ccccc3F)ccc2O1 (configuration not stated) | > 7.5 µM (inactive)
O=C(CC1SC(N2CCOCC2)=NC1=O)Nc1ccc(Cl)c(C(F)(F)F)c1 (configuration not stated) | > 7.5 µM (inactive)
CC1OC(OCC2OC(Oc3c(-c4ccc(O)cc4)oc4cc(O)cc(O)c4c3=O)C(O)C(O)C2O)C(O)C(O)C1O (configuration not stated) | > 7.5 µM (inactive)
O=C(C1=C(O)C(=O)N(Cc2ccccc2)C1c1cccnc1)c1ccco1 (configuration not stated) | > 7.5 µM (inactive)
CCc1nnc(NS(=O)(=O)c2ccc(N=CC3=C(O)CC(C)(C)CC3=O)cc2)s1 | > 7.5 µM (inactive)
CCn1c(O)c(/C=C2\C=NN=C2c2ccccc2)sc1=S | > 7.5 µM (inactive)

Reference: PubChem BioAssay AID435023 (Broad Institute, 2010)
